Laboratory results as given in patent US20040043047A1, “Cosmetic or dermatological compositions containing at least one substance for increasing the functionality and/or expression of the CD44 membrane receptors of skin cells” (priority 1999, published 2004).
Like-named read-outs stand apart in the source and are kept apart here. Marks after values point to notes of the source that are not given here.

Key:
[1] = test system: CD44; assay: Expression of the hyaluronic acid receptor (CD44) at the surface of keratinocytes, anti-CD44 antibody labelling normalized to cellular DNA (protocol II); format: cell-based, human; settings: 0.22 mM
Description: II—Measurement of the Expression of the Hyaluronic Acid Receptor (CD44) at the Surface of Keratinocytes
Steps 1 and 2 are identical to steps 1 and 2 of I.
3—Binding of the cells to 2% paraformaldehyde in PBS containing calcium and magnesium for 5 minutes at ambient temperature.
4—Saturation of the Nonspecific Antigen-Antibody Binding Sites:
After rinsing twice with PBS, the cells are incubated with PBS saturation medium with calcium and magnesium supplemented with 5% v/v of calf serum and 0.05% w/v of sodium azide, for 1 hour at ambient temperature. […]
7—Fluorescence Quantification:
After rinsing twice with the saturation medium, the fluorescence present in the wells is read with 50 μl of PBS at λ excitation=544 nm and k emission=590 nm. […]
The products whose activity on the expression of the CD44 receptor it is desired to evaluate are added to the culture medium 24 hours after inoculation of the cells. […] Controls are carried out in the absence of the products to be evaluated, and in the presence of the excipient which was used to dissolve them. […]
(§1) The values thus obtained are normalized, taking account of the amount of cellular material present in the wells. To do this, the cellular DNA content is measured by the DAPI method (see protocol below).
III—Quantification of the Cellular DNA with […] Dihydrochloride (DAPI) […]
3—Fluorescence Quantification: […]

[2] = test system: CD44 receptor; assay: Functionality of the CD44 receptor: hyaluronic acid binding by keratinocytes after 48 hours of treatment, normalized to cellular DNA (protocol II-9); format: cell-based, human; settings: 0.22 mM
Description: The products whose activity on the expression of the CD44 receptor it is desired to evaluate are added to the culture medium 24 hours after inoculation of the cells. To do this, the inoculation medium is removed and replaced with an identical medium containing the test substance. The incubation then continues for 48 hours. Controls are carried out in the absence of the products to be evaluated, and in the presence of the excipient which was used to dissolve them. All the factors are otherwise equal.
9—Measurement of the functionality of the CD44 receptor.
as §1
III—Quantification of the Cellular DNA with […] Dihydrochloride (DAPI)
The quantification of the cellular DNA may be carried out directly on the cultures after quantification of the CD44 expression.
30 μl of methanol at −20° C. are added to each well for 1 min.
After rinsing twice with PBS, a 20 μg/ml DAPI solution is added over 15 minutes at ambient temperature and in darkness.
3—Fluorescence Quantification:
After rinsing twice with PBS, the fluorescence present in the wells is read with 50 μl of PBS at λ excitation=355 nm and λemission=460 nm.

[3] = test system: human keratinocytes; settings: for Fluorescence measured (FU) Mean: Table III; for Amount of fluorescence measured compared with calcium chloride at equivalent molarity: 5 and 10 mM
Description: I-Measurement of the Amount of Haluronic Acid Bound to the Surface of Keratinocytes
The following steps are performed:
15,000 human keratinocytes are inoculated in culture wells (96-well plates) in a K-SFM medium (Gibco).
2—Production of Confluent Cultures:
Incubation of the cultures for 72 hours at 37° C. under a humidity-saturated atmosphere, with 5% CO2, with renewal of the culture medium after 48 h.
3—Binding of Hyaluronic Acid:
Incubation of the cells for 4 hours at 4° C. with hyaluronic acid covalently bonded to a fluorochrome, […] (HA-FA), synthesized in the laboratory according to the technique described in “Preparation and properties of fluoresceine-labelled hyaluronate; carbohydrate research, 1975, Vol. 44, pp. 251-257”, prepared in K-SFM containing 0.2% sodium azide.
4—Evaluation of the Activity of the Test Products:
The products for which it is desired to evaluate the action on the amount of HA-FA bound by keratinocytes are added to the incubation medium at the start of incubation. Controls are carried out in the absence of the products to be evaluated and in the presence of their excipient which was used to dissolve them.
5—Nonspecific Binding of HA-FA.
In order to determine the nonspecific labelling, the same experimental conditions as in step 3 are rigorously used, but with the addition of 200 times more hyaluronic acid not labelled with a fluorochrome.
6—Fluorescence Quantification:
After the HA-FA binding medium has been removed, two rinses with PBS are carried out, after which the fluorescence bound to the keratinocytes is measured at an excitation wavelength λex 485 nm and an emission wavelength λem=538 nm.
7—Expressing the Results:
The results are expressed in fluorescence units (“specific fluorescence”), with the nonspecific fluorescence being deducted (see 5-).
To do this, the fluorescence values measured are reduced to the cellular DNA content, carried out according to the DAPI method (see III-).

Compound: CC(O)C(=O)[O-].[Na+] (centres unmarked) [Sodium lactate, sodium lactate]
- Expression of CD44 at the surface of human keratinocytes % increase ([1]; 48 hours, versus 0 mM control): 32%
- Expression of CD44 at the surface of human keratinocytes CD44 (FU)/cellular DNA (FU) labelling Mean ([1]; cells treated for 48 hours, control 189 ± 28): 249 ± 31
- Binding of hyaluronic acid to the surface of human keratinocytes Binding (FU)/cellular DNA (FU) Mean ([2]; 48 hours of treatment, control 59 ± 8.5): 105 ± 24
- Binding of hyaluronic acid to the surface of human keratinocytes % increase ([2]; 48 hours, versus 0 mM control): 78%

Compound: O=C([O-])[C@H](O)[C@@H](O)[C@H](O)[C@H](O)CO.[Na+] [sodium gluconate]
- Fluorescence measured (FU) Mean ([3]; sodium gluconate 10 mM with CaCl2 2.5 mM): 27 FU
- Fluorescence measured (FU) Mean ([3]; sodium gluconate 10 mM with CaCl2 5 mM): 84* FU
- Fluorescence measured (FU) Mean ([3]; sodium gluconate 10 mM with CaCl2 10 mM): 2,186* FU
- Fluorescence measured (FU) Mean ([3]; sodium gluconate 10 mM, CaCl2 0 mM): 6 FU
- Increase of the effects of calcium on hyaluronic acid binding, factor ([3]; relatively optimized conditions (10 mM CaCl2 / 2.5 mM sodium gluconate)): ≥ 12

Compound: calcium gluconate
- Amount of fluorescence measured compared with calcium chloride at equivalent molarity [3]: significantly greater

Compound: manganese chloride [MnCl2]
- Amount of fluorescence measured compared with calcium chloride at equivalent molarity [3]: significantly greater
